Series [1] deals with CD-1 mice. The series is described as follows: Effects of opioid antagonists on topical mu analgesia (tailflick). It counts as in vivo. The conditions noted are these: for effect of 3-methoxynaltrexone on topical M6G response: 0.25 mg/kg s.c. 20 min prior, M6G 20 mM; for effect of naloxone on topical opioid analgesic responses: naloxone 1 mg/kg s.c. 20 min prior, M6G 20 mM topical 1 min. As for the experimental part:
(§1) Systemic drugs were given subcutaneously (s.c.) in the midscapular region of the back. Intracerebroventricularly (i.c.v.) and intrathecal injections were performed under light halothane anesthesia 30 and 15 min before testing, respectively, as previously reported (Kolesnikov et al, 1996). The i.c.v. injections were administered-2 mm caudal and 2 mm lateral to the bregma at a depth of 3 mm, whereas intrathecal injections were made by lumbar puncture. Drugs were given topically on the tail by immersion of the tail in dimethylsulfoxide (DMSO) solutions containing the indicated drugs. The distal portion of the tail (3 cm) was immersed in DMSO solution for 1 min. Tailflick latencies then were determined on the region of the tail immersed in the drug, unless otherwise stated. To ensure a local effect, testing was also done with a more proximal segment of tail not exposed to the drug solution.
(§2) Analgesia was assessed with the tail-flick assay, as previously reported (Kolesnikov et al., 1996). The tail was exposed to a focused beam of light and the latency of exposure determined. […] A maximum cutoff latency of 10 sec was used to minimize tissue damage in analgesic animals. Testing was performed 30 min after systemic administration, 15 min after either i.c.v or i.t. injections or immediately after termination of topical administration into the tail. Antinociception, or analgesia, was defined quantally as a tailflick latency for an individual mouse which was at least twice its baseline latency. Group comparisons were performed using the Fisher exact test. ED50 values were determined using the Bliss program, as previously reported (Pick et al., 1993). To ensure a local action, in all studies we examined a region of the tail which was immersed in DMSO as well as a more proximal segment which was not exposed.

The subject of series [2] is CD-1 mice. The series is described as follows: Tailflick assay, topical opioid analgesia (tail immersion in DMSO solution). Format: in vivo. As to conditions: for analgesic response in proximal tail not exposed to the opioid solution: mouse, in vivo; for Relative potency: ratio of topical ED50 against morphine; for ED50 (95% CL): topical for 1 min, tailflick assay, CD-1 mice; for analgesic response: morphine solution 7.5 mM.

In series [3] the test system is CD-1 mice. Description: Tolerance to systemic and topical morphine and cross tolerance (tailflick). It counts as in vivo. As to conditions: for response to topical opioid after chronic systemic morphine (cross tolerance): morphine 5 mg/kg s.c. daily five days, tested day six, 1 min local exposure (morphine 15 mM, M6G 20 mM, DAMGO 2 mM). The method, then: as §1, §2

Series [4] has as its system CD-1 mice. As to conditions: subcutaneous injection in the tail, doses of 10 or 30 μg.
For series [5] the following is noted: central actions; cited from earlier work.
The subject of series [6] is CD-1 mice. Description: Effect of NMDA antagonists (MK801, ketamine) on topical morphine tolerance (tailflick). It counts as in vivo. The method, then:
as §1, §2

In series [7] the test system is CD-1 mice. Description: Interactions between topical and systemic or spinal morphine (tailflick). It counts as in vivo. As to conditions: for ED50: Mus musculus, topical, 0.5 h. As for the experimental part:
Testing was performed 10 min following drug administration. […] Testing was performed 30 min following drug administration.
as §1, §2

For series [8] the following is noted: for Radioactivity, Tail Unexposed: unexposed tail less than 1 cm from exposed region.
Setting [9] is: morphine 15 mM daily, after three days.
The mark [10] stands for this setting: tail immersed 3 min in 100 μCi/ml in DMSO, sampled within 5 min.

Data on nine molecules can be found in patent US7700122B1, “Topical compositions comprising an opioid analgesic and an NMDA antagonist” (Memorial Sloan-Kettering Cancer Center, priority 1998, dated 2010).

Entries after “also recorded” stand apart in the source; their conditions may differ. Counter-ions that a name gives are not always drawn.

`COc1ccc2c3c1O[C@H]1C(=O)CC[C@@]4(O)[C@@H](C2)N(CC2CC2)CC[C@]314` [3-MeONtx, 3-methoxynaltrexone]: the “effect of 3-methoxynaltrexone on topical M6G response” value is recorded as “significantly lowered the response only for M6G” with CD-1 mice [1] and “significantly lowered the M6G response” in the series on CD-1 mice [1] (listed as 3MeONtx). In addition, the “effect of 3-methoxynaltrexone on topical morphine or DAMGO analgesia” value with CD-1 mice [1] (0.25 mg/kg s.c., morphine 15 mM, DAMGO 2 mM) is “inactive”.

`C[C@@H](NC(=O)[C@@H](N)Cc1ccc(O)cc1)C(=O)NCC(=O)N(C)[C@@H](Cc1ccccc1)C(=O)NCCO` [DAMGO, [D-Ala^2,MePhe^4,Gly(ol)^5]enkephalin]: in the series with CD-1 mice [2], the “analgesic response in proximal tail not exposed to the opioid solution” value is on record as “no analgesic response”, the Relative potency was 5 and the “ED50 (95% CL)” value is on record as 1.6 mM (1-2.5). For the same molecule, the “duration of action” value in the series on CD-1 mice [2] (topical, FIG. 1a) is listed as “lasting almost an hour”. Also, the “potency relative to morphine” value with CD-1 mice [2] (topical, fixed exposure time) is “over 5 fold”. In the series with CD-1 mice [3], the “response to topical opioid after chronic systemic morphine (cross tolerance)” value (“response to topical opioid” for short) is recorded as “significantly decreased”.

Consider `CN1CC[C@]23c4c5ccc(O)c4O[C@H]2[C@@H](O[C@@H]2O[C@H](C(=O)O)[C@@H](O)[C@H](O)[C@H]2O)C=C[C@H]3[C@H]1C5` [M6G, morphine-6β-glucuronide], for which, in the series on CD-1 mice [2], the “analgesic response in proximal tail not exposed to the opioid solution” value was “did not display analgesia”, the Relative potency came out at 0.9 and the “ED50 (95% CL)” value is listed as 9.3 mM (7-14). The “topical analgesic response” value with CD-1 mice [2] (topical paradigm, tailflick) was “full analgesic response”. In addition, in the series with CD-1 mice [3], the “response to topical opioid” value is given as “no change”. Moreover, in the series on CD-1 mice [4], the “ceiling effect of analgesia” value came to 30%. Also, the “central activity relative to morphine” value in series [5] is “approximately 100 fold”.

In the case of `C[C@]12N[C@H](Cc3ccccc31)c1ccccc12` [MK801, (5R,10S)— (+)-5-methyl-10,11-dihydro-5H-dibenzo[a,d]cyclohapten-5,10-immine hydrogen maleate], the “topical morphine response with intrathecal MK801” value in the series with CD-1 mice [6] (MK801 1 μg i.t., morphine 15 mM daily) was “lost and ineffective”. Moreover, the “topical morphine response with systemic MK801 (tolerance prevention)” value in the series on CD-1 mice [6] (MK801 0.1 mg/kg s.c., morphine 15 mM daily) was “remained essentially unchanged for five days”. The “reversal of established topical morphine tolerance by topical MK801” value in the series with CD-1 mice [6] (MK801 0.3 or 3 mM from fourth day) is given as “reversed the previously established tolerance”. Besides, the “topical morphine response with topical MK801 3 mM (tolerance prevention)” value in the series with CD-1 mice [6] (morphine 15 mM 1 min daily) is “remained essentially unchanged for five days; also recorded: prevented the loss of responsiveness”. Further, in the series with CD-1 mice [6] (setting [9]), the “topical morphine response with topical MK801 0.15 mM” value is on record as “intermediate response” and the “topical morphine response with topical MK801 0.3 mM” value is reported as “prevented the loss of responsiveness; also recorded: effectively blocking tolerance”.

The term ED50 denotes the dose that gives a 50% effect, or the effect in half of the subjects. In the case of `CN1CC[C@]23c4c5ccc(O)c4O[C@H]2[C@@H](O)C=C[C@H]3[C@H]1C5` [Morphine], the analgesic response stood at 25% with CD-1 mice [2] (exposure 30 seconds), 80% in the series on CD-1 mice [2] (exposure 2 min) and 50% in the series on CD-1 mice [2] (exposure one minute). For the same molecule, the “analgesic response in proximal tail not exposed to the opioid solution” value in the series on CD-1 mice [2] was “no analgesic response”. Besides, in the series with CD-1 mice [2] (topical, FIG. 1a), the “duration of the response” value was “less than 30 min”. In addition, in the series on CD-1 mice [2] (topical, shortest time tested), the “onset of analgesia after removal of the tail from the opioid solution” value is given as “detectable within one minute”. The “response to spinal morphine alone” value with CD-1 mice [7] (100 ng, i.t.) was “no observable action”. Moreover, in the series on CD-1 mice [7] (1 mg/kg, s.c.), the “response to systemic morphine alone” value was determined as 10%. The “potentiation of analgesic potency of systemic morphine by topical morphine” value in the series on CD-1 mice [7] (30 min) is around 7 fold. Also, the ED50 turned out to be 0.66 mg/kg in the series with CD-1 mice [7] (read-out: ED50 value, Systemic + topical); 4.3 mg/kg with CD-1 mice [7] (read-out: ED50 value, Systemic alone); 4.3 mg/kg with CD-1 mice [3] (Mus musculus, topical, read-out: ED50 (95% confidence limits), Systemic, Naive). Besides, in the series with CD-1 mice [7] (intrathecal morphine alone, tested 15 min), the “ED50 value, Spinal alone” value was 550 ng (386-822). Further, the “ED50 value, Spinal + topical” value in the series on CD-1 mice [7] (intrathecal morphine with fixed topical morphine 15 mM, tested 15 min) is 46 ng (21-84). In the series with CD-1 mice [7] (mouse, in vivo), the “enhancement of potency of intrathecal morphine by topical morphine” value was around 12 fold. Also, in the series with CD-1 mice [7] (topical 15 mM 2 min + 100 ng i.t., 10 min), the “response of topical plus spinal morphine versus sum of routes” value was “significantly more active than the sum of the two individual routes alone”. In the series on CD-1 mice [7] (topical 15 mM + 1 mg/kg s.c., 30 min), the “response of topical plus systemic morphine versus sum of routes” value is “significantly greater than the sum of the two ones alone”. Besides, the “response to topical morphine alone at 1 min” value with CD-1 mice [7] (topical morphine 15 mM, 2 min exposure, 1 min after) is reported as 80%. In addition, the “response to topical morphine alone at 10 min” value in the series with CD-1 mice [7] (topical morphine 15 mM, 10 min after) is on record as 30%. The “response to topical morphine alone at 30 min” value in the series with CD-1 mice [7] (topical morphine 15 mM, 30 min after) is reported as “no observable response; also recorded: No analgesia”. The “day 3 response, systemic versus topical group” value in the series on CD-1 mice [3] (5 mg/kg s.c. or topical 15 mM 1 min daily) was “significantly greater than the topical group”. Further, in the series on CD-1 mice [3] (after topical morphine 15 mM daily for two days), the “ED50 (95% confidence limits), Topical, Tolerant” value is listed as 78 mM (49, 123). Moreover, the “response to topical opioid” value in the series with CD-1 mice [3] is “significantly decreased”. Further, the “ED50 (95% confidence limits), Topical, Naive” value with CD-1 mice [3] (naive mice, topical morphine) is listed as 8.3 mM (4.1-10.2). The “response to daily topical morphine alone after three days” value with CD-1 mice [3] (topical 15 mM, 1 min, daily) is “lost and profound tolerance by the third day and complete loss analgesia by the third day”.

For the molecule `CNC1(c2ccccc2Cl)CCCCC1=O` (stereo not shown) [ketamine, 2-(2-chlorophenyl)-2-(methylamino) cyclohexanone], in the series with CD-1 mice [6] (data not shown), the “topical morphine tolerance with intrathecal ketamine” value is “ineffective” and the “topical morphine tolerance with systemic ketamine” value is “prevented the development of tolerance to topical morphine”. Also, the “reversal of established topical morphine tolerance by topical ketamine 36 mM” value in the series on CD-1 mice [6] (ketamine from day 3 through day 6) is given as “completely restored morphine analgesia”. In addition, in the series with CD-1 mice [6] (morphine 15 mM once daily), the “topical morphine tolerance with topical ketamine 3.6 mM” value is “significantly lessened the loss of morphine analgesic response after three days; also recorded: delayed the appearance of tolerance” and the “topical morphine tolerance with topical ketamine 36 mM” value is reported as “prevented tolerance up to six days; also recorded: effectively blocked tolerance”. For the same molecule, the “analgesia of ketamine alone” value with CD-1 mice [6] (topical 36 mM) is given as “did not produce significant analgesia; also recorded: no appreciable effect”.

Consider `C=CCN1CC[C@]23c4c5ccc(O)c4O[C@H]2C(=O)CC[C@@]3(O)[C@H]1C5` [naloxone], for which the “effect of naloxone on topical opioid analgesic responses” value is recorded as “easily reversed; also recorded: readily reversed” in the series on CD-1 mice [1] (morphine 15 mM, DAMGO 2 mM) and “significantly reduced the responses for all agonists” with CD-1 mice [1] (morphine 15 mM, DAMGO 2 mM, listed as Naloxone).

For [^125I]DAMGO [^125I-DAMGO], in series [8] (setting [10]), the “Radioactivity, Blood” value is on record as below 50 cpm/g; the “Radioactivity, Brain” value was below 50 cpm/g; the “Radioactivity, Spinal cord” value is given as below 50 cpm/g; the “Radioactivity, Tail Exposed” value is 45,280 ± 2,637 cpm/g. In addition, the “Radioactivity, Tail Unexposed” value in series [8] stood at 157 ± 51 cpm/g.

In the case of [^125I]Morphine [^125I-Morphine], in series [8] (setting [10]), the “Radioactivity, Blood” value is on record as 69 ± 18 cpm/g; the “Radioactivity, Spinal cord” value turned out to be 71 ± 12 cpm/g; the “Radioactivity, Tail Exposed” value is on record as 38,460 ± 3,455 cpm/g. Moreover, in series [8], the “Radioactivity, Tail Unexposed” value is given as 234 ± 51 cpm/g.
